Test results taken from patent publication US9346795B2, “Substituted sulfonamides useful as antiapoptotic Bcl inhibitors” (Bristol-Myers Squibb Company, priority 2011, dated 2016).
pIC50: −log10 of the molar value.

Experiments:
Bcl-xL = Bcl-xL (Homo sapiens (Human), UniProt Q07817); test: Bcl-xL/Bim Fluorescence Resonance Energy Transfer Assay (FRET); assay type: binding
Procedure: Bcl-xL/Bim Fluorescence Resonance Energy Transfer Assay (FRET) The assays were performed in black flat-bottom 384-well plates. The final assay volume was 55 μl prepared from additions of Biotin-Bcl-xL (Bcl-xL: GENBANK® Accession No. […] The reaction was incubated at room temperature for 60 minutes. After 60 minutes, 5 μL of Streptavidin-Terbium FRET detection reagent (Perkin Elmer) was added to the reaction mixture and incubated at room temperature in the dark for 30 mins. […] Compounds were dissolved at 10 mM in dimethylsulfoxide (DMSO) and evaluated at eleven concentrations. IC50 values were derived by non-linear regression analysis.

Bcl-2 = Bcl-2 (Homo sapiens (Human), UniProt P10415); test: Bcl-2/Bim Fluorescence Polarization Assay (FPA); assay type: binding
Bcl-2, sequence (P10415 whole entry): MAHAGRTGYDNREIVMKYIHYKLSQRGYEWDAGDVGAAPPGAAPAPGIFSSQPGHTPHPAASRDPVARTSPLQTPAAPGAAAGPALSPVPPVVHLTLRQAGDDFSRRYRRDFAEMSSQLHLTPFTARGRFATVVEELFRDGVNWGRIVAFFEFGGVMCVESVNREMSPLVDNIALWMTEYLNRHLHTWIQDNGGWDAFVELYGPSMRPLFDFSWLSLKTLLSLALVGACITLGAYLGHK
Procedure: Bcl-2/Bim Fluorescence Polarization Assay (FPA)
The assays were performed in black flat-bottom 384-well plates. […] The reaction was incubated at room temperature for 60 minutes and fluorescence polarization of the reaction was detected on the LJL Plate Reader. Inhibition data were calculated from mP values generated by the no protein control reactions for 100% inhibition and vehicle-only reactions for 0% inhibition. The final concentrations of reagents in the assay were 4.9 nM BCL-2, 5 nM fluoresceinated 18-mer BIM peptide and 1% DMSO. […] Compounds were dissolved at 10 mM in dimethylsulfoxide (DMSO) and evaluated at eleven concentrations. IC50 values were derived by non-linear regression analysis.

Bcl-xL, sequence (Q07817 whole entry): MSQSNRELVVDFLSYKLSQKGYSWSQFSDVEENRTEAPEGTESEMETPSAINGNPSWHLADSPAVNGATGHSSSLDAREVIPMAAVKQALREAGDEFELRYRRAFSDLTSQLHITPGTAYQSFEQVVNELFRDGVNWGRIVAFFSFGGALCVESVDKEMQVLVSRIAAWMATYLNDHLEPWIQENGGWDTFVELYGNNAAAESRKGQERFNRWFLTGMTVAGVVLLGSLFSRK

pIC50 (Bcl-xL) | pIC50 (Bcl-2) | SMILES
7.52 | 7.70 | CCCCN(CCCC)C(=O)c1nn(-c2ccc(C(=O)NS(=O)(=O)c3ccc4ccccc4c3)cc2C(=O)N2Cc3ccccc3C[C@H]2COCCCOC)c(C)c1Cl [Example 105, N,N-Dibutyl-4-chloro-1-(2-((S)-3-((3-methoxypropoxy)methyl)-1,2,3,4-tetrahydroisoquinoline-2-carbonyl)-4-(naphthalen-2-ylsulfonylcarbamoyl)phenyl)-5-methyl-1H-pyrazole-3-carboxamide]
7.70 | 7.05 | CCCCN(CCCC)C(=O)c1nn(-c2ccc(C(=O)NS(=O)(=O)c3ccc4ccccc4c3)cc2C(=O)N2Cc3ccccc3C[C@H]2CN2CCN(CCO)CC2)c(C)c1Cl [Example 115, N,N-dibutyl-4-chloro-1-(2-((S)-3-((4-(2-hydroxyethyl)piperazin-1-yl)methyl)-1,2,3,4-tetrahydroisoquinoline-2-carbonyl)-4-(naphthalen-2-ylsulfonylcarbamoyl)phenyl)-5-methyl-1H-pyrazole-3-carboxamide]
8.00 | 7.30 | CCCCN(CCCC)C(=O)c1nn(-c2ccc(C(=O)NS(=O)(=O)c3ccc4ccccc4c3)cc2C(=O)N2Cc3ccccc3C[C@H]2COCCO)c(C)c1Cl [Example 119, N,N-Dibutyl-4-chloro-1-(2-((S)-3-((2-hydroxyethoxy)methyl)-1,2,3,4-tetrahydroisoquinoline-2-carbonyl)-4-(naphthalen-2-ylsulfonylcarbamoyl)phenyl)-5-methyl-1H-pyrazole-3-carboxamide]
6.66 | 7.52 | CCCCN(CCc1ccc(Cl)c(Cl)c1)C(=O)c1nn(-c2ccc(C(=O)NS(=O)(=O)c3ccc4ccccc4c3)cc2C(=O)N2CCc3ccccc3C2)c(C)c1Cl [Example 127, N-butyl-4-chloro-N-(3,4-dichlorophenethyl)-5-methyl-1-(4-(naphthalen-2-ylsulfonylcarbamoyl)-2-(1,2,3,4-tetrahydroisoquinoline-2-carbonyl)phenyl)-1H-pyrazole-3-carboxamide]
7.10 | 6.96 | CCCCN(CCCC(F)(F)F)C(=O)c1nn(-c2ccc(C(=O)NS(=O)(=O)c3ccc4ccccc4c3)cc2C(=O)N2CCc3ccccc3C2)c(C)c1Cl [Example 128, N-butyl-4-chloro-5-methyl-1-(4-(naphthalen-2-ylsulfonylcarbamoyl)-2-(1,2,3,4-tetrahydroisoquinoline-2-carbonyl)phenyl)-N-(4,4,4-trifluorobutyl)-1H-pyrazole-3-carboxamide]
7.52 | 7.10 | Cc1c(Cl)c(C(=O)N(CCC(F)(F)F)CCC(F)(F)F)nn1-c1ccc(C(=O)NS(=O)(=O)c2ccc3ccccc3c2)cc1C(=O)N1CCc2ccccc2C1 [Example 130, 4-chloro-5-methyl-1-(4-(naphthalen-2-ylsulfonylcarbamoyl)-2-(1,2,3,4-tetrahydroisoquinoline-2-carbonyl)phenyl)-N,N-bis(3,3,3-trifluoropropyl)-1H-pyrazole-3-carboxamide]
7.52 | 7.15 | CCCCN(C(=O)c1nn(-c2ccc(C(=O)NS(=O)(=O)c3ccc4ccccc4c3)cc2C(=O)N2CCc3ccccc3C2)c(C)c1Cl)c1ccc2c(c1)OCCO2 [Example 149, N-butyl-4-chloro-N-(2,3-dihydrobenzo[b][1,4]dioxin-6-yl)-5-methyl-1-(4-(naphthalen-2-ylsulfonylcarbamoyl)-2-(1,2,3,4-tetrahydroisoquinoline-2-carbonyl)phenyl)-1H-pyrazole-3-carboxamide]
6.80 | 7.30 | CCCCN(C(=O)c1nn(-c2ccc(C(=O)NS(=O)(=O)c3ccc4ccccc4c3)cc2C(=O)N2CCc3ccccc3C2)c(C)c1Cl)c1cccc(-c2cccc(Cl)c2)c1 [Example 152, N-butyl-4-chloro-N-(3′-chlorobiphenyl-3-yl)-5-methyl-1-(4-(naphthalen-2-ylsulfonylcarbamoyl)-2-(1,2,3,4-tetrahydroisoquinoline-2-carbonyl)phenyl)-1H-pyrazole-3-carboxamide]
7.10 | 7.05 | CCCCN(C(=O)c1nn(-c2ccc(C(=O)NS(=O)(=O)c3ccc4ccccc4c3)cc2C(=O)N2CCc3ccccc3C2)c(C)c1Cl)c1ccc(C(=O)OC)cc1 [Example 154, methyl 4-(N-butyl-4-chloro-5-methyl-1-(4-(naphthalen-2-ylsulfonylcarbamoyl)-2-(1,2,3,4-tetrahydroisoquinoline-2-carbonyl)phenyl)-1H-pyrazole-3-carboxamido)benzoate]
7.70 | 7.15 | CCCCN(CCC(=O)NCCN1CCN(C)CC1)C(=O)c1nn(-c2ccc(C(=O)NS(=O)(=O)c3ccc4ccccc4c3)cc2C(=O)N2CCc3ccccc3C2)c(C)c1Cl [Example 158, N-Butyl-4-chloro-5-methyl-N-(3-(2-(4-methylpiperazin-1-yl)ethylamino)-3-oxopropyl)-1-(4-(naphthalen-2-ylsulfonylcarbamoyl)-2-(1,2,3,4-tetrahydroisoquinoline-2-carbonyl)phenyl)-1H-pyrazole-3-carboxamide]
7.52 | 6.64 | CCCCN(CCCC)C(=O)c1cc(C)n(-c2ccc(C(=O)NS(=O)(=O)c3ccc4ccccc4c3)cc2C(=O)N2CCc3ccccc3C2)n1 [Example 164, N,N-Dibutyl-5-methyl-1-(4-(naphthalen-2-ylsulfonylcarbamoyl)-2-(1,2,3,4-tetrahydroisoquinoline-2-carbonyl)phenyl)-1H-pyrazole-3-carboxamide]
7.10 | 7.70 | CCCCN(Cc1ccc(Cl)c(Cl)c1)C(=O)c1nn(-c2ccc(C(=O)NS(=O)(=O)c3ccc4ccc(I)cc4c3)cc2C(=O)N2CCc3ccccc3C2)c(C)c1Cl [Example 179, N-Butyl-4-chloro-N-(3,4-dichlorobenzyl)-1-(4-(7-iodonaphthalen-2-ylsulfonylcarbamoyl)-2-(1,2,3,4-tetrahydroisoquinoline-2-carbonyl)phenyl)-5-methyl-1H-pyrazole-3-carboxamide]
7.30 | 8.07 | CCCCN(Cc1ccc(Cl)c(Cl)c1)C(=O)c1nn(-c2ccc(C(=O)NS(=O)(=O)c3ccc4cccc(Cl)c4c3)cc2C(=O)N2Cc3ccccc3C[C@H]2CO)c(C)c1Cl [Example 181, N-Butyl-4-chloro-1-(4-(8-chloronaphthalen-2-ylsulfonylcarbamoyl)-2-((S)-3-(hydroxymethyl)-1,2,3,4-tetrahydroisoquinoline-2-carbonyl)phenyl)-N-(3,4-dichlorobenzyl)-5-methyl-1H-pyrazole-3-carboxamide]
7.40 | 8.00 | CCCCN(CCCC)C(=O)c1nn(-c2ccc(C(=O)NS(=O)(=O)c3ccc4c(c3)CCN4Cc3ccc(Cl)c(Cl)c3)cc2C(=O)N2Cc3ccccc3C[C@H]2CO)c(C)c1Cl [Example 189, N,N-Dibutyl-4-chloro-1-(4-(1-(3,4-dichlorobenzyl)indolin-5-ylsulfonylcarbamoyl)-2-((S)-3-(hydroxymethyl)-1,2,3,4-tetrahydroisoquinoline-2-carbonyl)phenyl)-5-methyl-1H-pyrazole-3-carboxamide]
6.16 | 6.59 | CCCCN(CCCC)c1nn(-c2ccc(C(=O)NS(=O)(=O)c3ccc4ccccc4c3)cc2C(=O)N2CCc3ccccc3C2)c(C)c1Cl [Example 191, 4-(4-Chloro-3-(dibutylamino)-5-methyl-1H-pyrazol-1-yl)-N-(naphthalen-2-ylsulfonyl)-3-(1,2,3,4-tetrahydroisoquinoline-2-carbonyl)benzamide]
7.52 | 7.22 | CCCN(CCC)c1nn(-c2ccc(C(=O)NS(=O)(=O)c3ccc4ccccc4c3)cc2C(=O)N2Cc3ccccc3C[C@H]2CO)c(C)c1Cl [Example 192, 4-(4-Chloro-3-(dipropylamino)-5-methyl-1H-pyrazol-1-yl)-3-((S)-3-(hydroxymethyl)-1,2,3,4-tetrahydroisoquinoline-2-carbonyl)-N-(naphthalen-2-ylsulfonyl)benzamide]
6.54 | 7.52 | CCCN(CCC)c1nn(-c2ccc(C(=O)NS(=O)(=O)c3ccc4cccc(Cl)c4c3)cc2C(=O)N2Cc3ccccc3C[C@H]2CO)c(C(F)(F)F)c1Cl [Example 195, 4-(4-Chloro-3-(dipropylamino)-5-(trifluoromethyl)-1H-pyrazol-1-yl)-N-(8-chloronaphthalen-2-ylsulfonyl)-3-((S)-3-(hydroxymethyl)-1,2,3,4-tetrahydroisoquinoline-2-carbonyl)benzamide]
6.29 | 7.40 | CCCN(CCC)c1nn(-c2ccc(C(=O)NS(=O)(=O)c3ccc4cccc(Cl)c4c3)cc2C(=O)N2CCc3ccccc3C2)c(C(F)(F)F)c1Cl [Example 196, 4-(4-Chloro-3-(dipropylamino)-5-(trifluoromethyl)-1H-pyrazol-1-yl)-N-(8-chloronaphthalen-2-ylsulfonyl)-3-(1,2,3,4-tetrahydroisoquinoline-2-carbonyl)benzamide]
7.30 | 8.05 | CCCCN(CCCC)C(=O)c1nn(-c2ccc(C(=O)NS(=O)(=O)c3ccc4c(ccn4Cc4ccc(Cl)c(Cl)c4)c3)cc2C(=O)N2Cc3ccccc3C[C@H]2CO)c(C)c1Cl [Example 198, N,N-dibutyl-4-chloro-1-(4-(1-(3,4-dichlorobenzyl)-1H-indol-5-ylsulfonylcarbamoyl)-2-((S)-3-(hydroxymethyl)-1,2,3,4-tetrahydroisoquinoline-2-carbonyl)phenyl)-5-methyl-1H-pyrazole-3-carboxamide]
